Measured values reported in patent publication US20140206657A1, “BILE ACID ANALOG TGR5 AGONISTS” (City of Hope, priority 2013, published 2014).
pEC50: −log10 of the molar value.

Experiments:
human TGR5 = target: T1, human TGR5 (Homo sapiens, UniProt Q8TDU6); assay: cAMP assay, HEK293 cells stably expressing human TGR5; assay type: cell-based
T1 construct: expressed in transfected cells
T1 sequence (Q8TDU6 1-330): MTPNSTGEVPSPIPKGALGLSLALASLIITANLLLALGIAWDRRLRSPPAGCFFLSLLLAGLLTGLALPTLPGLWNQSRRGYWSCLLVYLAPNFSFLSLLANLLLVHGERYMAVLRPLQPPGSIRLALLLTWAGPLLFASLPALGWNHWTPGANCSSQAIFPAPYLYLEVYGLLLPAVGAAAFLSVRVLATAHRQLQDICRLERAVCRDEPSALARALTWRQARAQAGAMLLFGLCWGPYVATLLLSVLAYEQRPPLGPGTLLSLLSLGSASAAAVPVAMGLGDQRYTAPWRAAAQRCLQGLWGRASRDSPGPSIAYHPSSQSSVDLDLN
Procedure: The changes in cAMP elicited by these bile acid derivatives was determined after binding to the TGR5. […] HEK293 cells stably expressing human TGR5 were treated with increasing doses of ligand after 6 hours of stimulation, and intracellular cAMP levels were measured by luminescence. […] Data analysis to determine EC50 values was performed with GraphPad Prism software using a cAMP standard curve and sigmoidal dose-response (variable slope) equation based on dose-response curves with tested compounds.

Row | pEC50 (human TGR5) | SMILES | further results
1 | – | CC[C@H]1C[C@@H]2[C@H](CC[C@]3(C)[C@@H]([C@H](C)C[C@H](C)C(=O)O)CC[C@@H]23)[C@@]2(C)CC[C@@H](O)C[C@@H]12 | melting point: 137.7 °C
2 | 6.68 | C[C@H](C[C@H](C)C(=O)O)[C@H]1CC[C@H]2[C@@H]3CC[C@@H]4C[C@H](O)CC[C@]4(C)[C@H]3CC[C@]12C [compound 13, 23(S)-Methyl-3α-hydroxy-5β-cholan-24-oic acid] | –
3 | 6.15 | CC[C@H]1[C@H](O)[C@@H]2[C@H](CC[C@]3(C)[C@@H]([C@H](C)C[C@H](C)C(=O)O)CC[C@@H]23)[C@@]2(C)CC[C@@H](O)C[C@@H]12 [compound 24, 3α,7β-Dihydroxy-23(S)-methyl-6α-ethyl-5β-cholan-24-oic acid] | –
4 | – | CC[C@@]1(O)CC[C@@]2(C)[C@H](CC[C@@H]3[C@@H]2CC[C@]2(C)[C@@H]([C@H](C)CCC(=O)O)CC[C@@H]32)C1 [compound 26, 3β-Ethyl-3α-hydroxy-LCA] | TGR5 activity / potency, in words (SAR statements) (human TGR5; assay not named in b266 and b269, b275 belongs to the cAMP example): large loss in potency
